The results in this text go back to patent US20240150715A1 (Sciperio, Inc, priority 2022, published 2024).

What all share (type): cell-based
Assay [1] deals with differentiating hematopoietic stem cells (HSCs). The assay is described as follows: High-density differentiation of HSCs into RBCs: culture density / proliferation. Particulars: ferric citrate compared with transferrin, FIG. 5A. The source says:
(B) Secretion of cellular waste compounds ammonia and lactate is equivalent between ferric citrate and transferrin, indicating similar metabolic rates. (C) Rates of lytic cell death are similar between cultures treated with ferric citrate and transferrin, as is indicated by the release of lactate dehydrogenase (LDH). (D) Amino acid consumption is similar between the two conditions, as is represented by the consumption of alanine and other amino acids.
The medium formulation has specifically been designed for the efficient, high density, in vitro manufacture of RBCs from HSCs in bioreactors. It is formulated to optimally supply certain growth factors at elevated concentrations for rapid HSC expansion and mediated erythropoiesis using a bioreactor (FIG. 1). The formulation has been determined experimentally using the average depletion rates of various factors by differentiating HSCs in high-density culture (FIG. 2), and can be employed in the production of manufactured RBCs both in static culture (e.g. culture flasks) and in continually agitated suspension culture (e.g. bioreactors).
The present inventors have experimentally determined that a concentration range between 1 μg/mL and 500 μg/mL is effective in driving directed HSC differentiation through the stages of erythropoiesis in a manner that is equivalent to that of holo-transferrin (FIG. 4).

The subject of assay [2] is RBCs differentiated from HSCs. Put plainly: Enucleation, maturation and morphology of manufactured RBCs (DRAQ5-, CD235a+; leukofiltration; Leishman stain). As to conditions: for concentration of enucleated cells after leukofiltration: FIG. 6B. The source says: FIG. 6 illustrates ferric citrate-treated RBCs enucleate at rates similar to transferrin-treated RBCs.
Assay [3] deals with differentiating HSCs in high density culture. Put plainly: Analysis of culture medium: metabolic waste, LDH release, amino acid consumption. Particulars: ferric citrate compared with transferrin. On the technique in general: Release of lactate dehydrogenase indicates damage to the cell membrane.

With `O=C([O-])CC(O)(CC(=O)[O-])C(=O)[O-].[Fe+3]` [ferric citrate, iron (III) citrate], the “effect on HSC density and cumulative population doubling” value in assay [1] is “comparable”. For the same compound, the cell morphology result in assay [2] (Leishman stain, ferric citrate compared with transferrin, FIG. 6C) was “morphologically similar”. The “concentration of enucleated cells after leukofiltration” value in assay [2] worked out at 74.8%. In addition, in assay [2] (ferric citrate versus transferrin, after differentiation in optimized medium, FIG. 6A), the “difference in overall enucleation” value is on record as around 4%. Moreover, the “secretion of cellular waste compounds ammonia and lactate” value in assay [3] (FIG. 5B) is reported as “equivalent”. In addition, the “amino acid consumption (alanine and other amino acids)” value in assay [3] (FIG. 5D) is “similar”.
As to “transferrin: iron-loaded protein holo-transferrin, traditional iron source in HSC culture media”, the “concentration of enucleated cells after leukofiltration” value in assay [2] came out at 79%.
